# Results as given in patent publication US12617793B2, “Organic electron transfer mediator and device comprising same” (I-sens, Inc., priority 2019, dated 2026).
# Legend:
# [1] = Cyclic voltammetry of organic electron-transfer mediators (oxidation reduction potential vs Ag/AgCl); type: physicochemical; settings: for Eox / Ered: pH 7.0, 2 mg/mL in water, 0.1M PBS buffer, vs Ag/AgCl
# [2] = Stability test by pH and solvent (CV after one day of the solution; colour change); type: physicochemical
# [3] = Solubility depending on the solvent (seen from CV current strength); settings: for solubility in water: water / 0.1 M PBS aqueous buffer
# [4] = compared to the Ag/AgCl reference electrode; cited from earlier work
smiles,measurement,setting,value
"N#Cc1cc2nc3c(=O)[nH]c(=O)nc-3n(CCCS(=O)(=O)O)c2cc1C#N [Chemical formula 2, 3-(7,8-dicyano-2,4-dioxo-3,4-dihydrobenzo[g]pteridin-10(2H)-yl)propane-1-sulfonic acid]",E1/2 (vs Ag/AgCl),[1]; 0.1M PBS in H2O,−0.172 V
same,E1/2 (vs Ag/AgCl),[1]; 0.1M TBAP in CH3CN,−0.315 V
same,E1/2 (vs Ag/AgCl),[1]; 0.1M TBAP in DMSO,0.061 V
same,Eox,[1],−0.139 V
same,Ered,[1],−0.229 V
same,stability in DMSO,[2]; 0.1M TBAP in DMSO,changed to a different structure under DMSO
same,stability by pH,[2]; CV after one day of the solution at pH 4-9,the current value decreased under the basic condition
"N#Cc1cc2nc3c(=O)[nH]c(=O)nc-3n(Cc3ccccc3)c2cc1C#N [Chemical formula 3, 10-benzyl-7,8-dicyanoisoalloxazine]",E1/2 (vs Ag/AgCl),[1]; 0.1M TBAP in DMSO,−0.285 V
"CC(C)(C)OC(=O)NCCCCCn1c2nc(=O)[nH]c(=O)c-2nc2cc(C#N)c(C#N)cc21 [Chemical formula 4, tert-butyl (5-(7,8-dicyano-2,4-dioxo-3,4-dihydrobenzo[g]pteridin-10(2H)-yl)pentyl)carbamate]",E1/2 (vs Ag/AgCl),[1]; 0.1M TBAP in CH3CN,−0.330 V
"CC(C)(C)OC(=O)NCCCCCCn1c2nc(=O)[nH]c(=O)c-2nc2cc(C#N)c(C#N)cc21 [Chemical formula 5, tert-butyl (6-(7,8-dicyano-2,4-dioxo-3,4-dihydrobenzo[g]pteridin-10(2H)-yl)hexyl)carbamate]",E1/2 (vs Ag/AgCl),[1]; 0.1M TBAP in CH3CN,−0.330 V
"N#Cc1cc2nc3c(=O)[nH]c(=O)nc-3n(CCCCCO)c2cc1C#N [Chemical formula 6, 10-(5-hydroxypentyl)-2,4-dioxo-2,3,4,10-tetrahydrobenzo[g]pteridine-7,8-dicarbonitrile]",E1/2 (vs Ag/AgCl),[1]; 0.1M TBAP in DMSO,−0.325 V
"N#Cc1cc2nc3c(=O)[nH]c(=O)nc-3n(CCOCCO)c2cc1C#N [Chemical formula 7, 10-(2-(2-hydroxyethoxy)ethyl)-2,4-dioxo-2,3,4,10-tetrahydrobenzo[g]pteridine-7,8-dicarbonitrile]",E1/2 (vs Ag/AgCl),[1]; 0.1M TBAP in DMSO,−0.315 V
"N#Cc1cc2nc3c(=O)[nH]c(=O)nc-3[nH]c2cc1C#N [Chemical formula 8, 2,4-dioxo-2,3,4,10-tetrahydrobenzo[g]pteridine-7,8-dicarbonitrile]",E1/2 (vs Ag/AgCl),[1]; 0.1M TBAP in DMSO,−0.494 V
"Cc1ccc(Cn2c3nc(=O)[nH]c(=O)c-3nc3cc(C#N)c(C#N)cc32)cc1 [Chemical formula 9, 10-(4-methylbenzyl)-2,4-dioxo-2,3,4,10-tetrahydrobenzo[g]pteridine-7,8-dicarbonitrile]",E1/2 (vs Ag/AgCl),[1]; 0.1M TBAP in DMSO,−0.296 V
"COc1ccc(Cn2c3nc(=O)[nH]c(=O)c-3nc3cc(C#N)c(C#N)cc32)cc1 [Chemical formula 10, 10-(4-methoxybenzyl)-2,4-dioxo-2,3,4,10-tetrahydrobenzo[g]pteridine-7,8-dicarbonitrile]",E1/2 (vs Ag/AgCl),[1]; 0.1M TBAP in DMSO,−0.298 V
C=CCn1c2nc(=O)[nH]c(=O)c-2nc2cc(C#N)c(C#N)cc21 [Chemical formula 15],E1/2 (vs Ag/AgCl),[1]; 0.1M PBS in H2O,−0.196 V
same,Eox,[1],−0.120 V
same,Ered,[1],−0.216 V
same,solubility in water,[3],very low
N#Cc1cc2nc3c(=O)[nH]c(=O)nc-3n(CCO)c2cc1C#N [Chemical formula 16],E1/2 (vs Ag/AgCl),[1]; 0.1M PBS in H2O,−0.154 V
same,E1/2 (vs Ag/AgCl),"[1]; 0.1M PBS in H2O, listed as drawing 56",−0.153 V
same,E1/2 (vs Ag/AgCl),[1]; 0.1M TBAP in CH3CN,−0.319 V
same,E1/2 (vs Ag/AgCl),[1]; 0.1M TBAP in DMSO,−0.315 V
same,solubility in acetonitrile,[3]; 0.1M TBAP in CH3CN,very low
same,solubility in water,[3],prominent
Cc1cc2nc3c(=O)[nH]c(=O)nc-3n(C)c2cc1C [flavin [or isoalloxazine]derivative],oxidation reduction potential,[4],−0.46 V
